Data as given in publication PMC2900928 (Cell, 2010).

Columns and labels:
BT1765 = molecular target: T1, BT1765 (Bacteroides thetaiotaomicron, UniProt Q8A6W1); assay: fructose release; type: biochemical; conditions: 20 mM Tris-HCl, pH 8.0, 37°C
T1 sequence (Q8A6W1 26-627): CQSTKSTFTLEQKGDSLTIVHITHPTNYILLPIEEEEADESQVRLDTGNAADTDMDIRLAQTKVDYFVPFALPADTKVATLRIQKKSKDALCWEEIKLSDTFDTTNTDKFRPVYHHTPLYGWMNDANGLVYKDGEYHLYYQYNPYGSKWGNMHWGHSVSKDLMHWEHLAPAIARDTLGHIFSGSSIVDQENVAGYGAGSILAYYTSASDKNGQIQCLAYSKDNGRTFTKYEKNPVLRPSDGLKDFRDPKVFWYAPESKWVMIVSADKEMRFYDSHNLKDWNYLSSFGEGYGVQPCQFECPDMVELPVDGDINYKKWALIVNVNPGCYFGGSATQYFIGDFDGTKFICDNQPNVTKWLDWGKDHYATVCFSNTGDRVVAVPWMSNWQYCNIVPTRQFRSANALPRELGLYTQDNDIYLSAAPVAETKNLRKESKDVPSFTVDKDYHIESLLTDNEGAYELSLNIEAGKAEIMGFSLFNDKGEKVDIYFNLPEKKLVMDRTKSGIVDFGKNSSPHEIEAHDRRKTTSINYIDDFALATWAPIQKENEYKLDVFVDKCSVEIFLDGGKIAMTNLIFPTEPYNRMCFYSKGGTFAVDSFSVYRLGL

BT1754-PD = molecular target: T2, BT1754-PD (Bacteroides thetaiotaomicron, UniProt Q8A6X1); assay: isothermal titration calorimetry; type: binding; conditions: 20 mM Tris-HCl, pH 8.0; 1:1 stoichiometry, single site
T2 sequence (Q8A6X1 29-343): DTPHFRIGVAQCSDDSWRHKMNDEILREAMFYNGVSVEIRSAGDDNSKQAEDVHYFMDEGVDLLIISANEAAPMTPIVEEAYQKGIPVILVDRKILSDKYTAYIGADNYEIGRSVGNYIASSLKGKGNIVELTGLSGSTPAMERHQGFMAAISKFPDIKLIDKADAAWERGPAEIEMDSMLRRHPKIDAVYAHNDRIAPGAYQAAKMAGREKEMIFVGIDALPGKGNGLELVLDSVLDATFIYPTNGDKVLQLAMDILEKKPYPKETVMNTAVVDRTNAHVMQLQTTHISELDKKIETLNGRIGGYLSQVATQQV

BT3082 = molecular target: T3, BT3082 (Bacteroides thetaiotaomicron, UniProt Q8A373); assay: fructose release; type: biochemical; conditions: 20 mM Tris-HCl, pH 8.0, 37°C
T3 sequence (Q8A373 21-548): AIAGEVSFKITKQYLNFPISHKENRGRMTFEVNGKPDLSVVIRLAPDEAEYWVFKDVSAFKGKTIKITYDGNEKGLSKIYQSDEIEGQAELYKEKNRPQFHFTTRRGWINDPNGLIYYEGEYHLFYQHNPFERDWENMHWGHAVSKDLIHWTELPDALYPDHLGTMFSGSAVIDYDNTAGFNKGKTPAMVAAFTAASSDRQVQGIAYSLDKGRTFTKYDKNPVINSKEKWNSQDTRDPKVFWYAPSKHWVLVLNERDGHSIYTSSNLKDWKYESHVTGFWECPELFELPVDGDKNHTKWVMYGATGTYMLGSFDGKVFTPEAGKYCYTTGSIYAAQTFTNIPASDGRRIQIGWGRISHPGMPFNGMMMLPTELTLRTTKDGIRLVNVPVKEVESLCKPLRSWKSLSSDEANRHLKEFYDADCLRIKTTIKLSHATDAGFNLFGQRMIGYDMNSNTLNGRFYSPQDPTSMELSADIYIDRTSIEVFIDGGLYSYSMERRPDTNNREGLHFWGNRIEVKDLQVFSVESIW

BT1759 = molecular target: T4, BT1759 (Bacteroides thetaiotaomicron, UniProt Q8A6W7); assay: fructose release; type: biochemical; conditions: 20 mM Tris-HCl, pH 8.0, 37°C
T4 sequence (Q8A6W7 29-610): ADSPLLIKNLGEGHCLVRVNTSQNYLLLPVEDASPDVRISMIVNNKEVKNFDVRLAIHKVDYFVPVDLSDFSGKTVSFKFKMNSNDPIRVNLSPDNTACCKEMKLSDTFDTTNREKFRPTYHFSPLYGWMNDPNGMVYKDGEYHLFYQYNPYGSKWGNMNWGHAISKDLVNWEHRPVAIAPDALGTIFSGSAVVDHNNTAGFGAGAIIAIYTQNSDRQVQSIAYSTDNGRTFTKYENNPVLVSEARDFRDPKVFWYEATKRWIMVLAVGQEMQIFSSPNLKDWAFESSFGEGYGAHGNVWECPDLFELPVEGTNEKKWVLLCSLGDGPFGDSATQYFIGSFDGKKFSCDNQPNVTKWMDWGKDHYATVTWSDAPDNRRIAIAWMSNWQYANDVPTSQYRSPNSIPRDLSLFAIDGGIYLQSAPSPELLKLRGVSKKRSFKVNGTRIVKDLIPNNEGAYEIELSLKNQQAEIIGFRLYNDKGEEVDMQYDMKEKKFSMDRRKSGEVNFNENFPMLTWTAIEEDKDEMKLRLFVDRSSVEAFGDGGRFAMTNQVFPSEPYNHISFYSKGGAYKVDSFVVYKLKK

In the case of `OC[C@H]1O[C@@](CO)(OC[C@H]2OC(O)(CO)[C@@H](O)[C@@H]2O)[C@@H](O)[C@@H]1O` (some centres unmarked) [L2, levanbiose], the KM (BT1765) is reported as “the enzyme is also able to efficiently degrade levanbiose (Table S2)”.
`OCC1(O)OC[C@@H](O)[C@@H](O)[C@@H]1O` (some centres unmarked) [fructose] showed a Kd (BT1754-PD) of ~2000 nM.
In the case of `OC[C@H]1O[C@@](CO)(O[C@H]2O[C@H](CO)[C@@H](O)[C@H](O)[C@H]2O)[C@@H](O)[C@@H]1O` [sucrose], the KM (BT3082) is reported as “BT1759 and BT3082 also cleave sucrose”, the KM (BT1759) is reported as “BT1759 and BT3082 also cleave sucrose” and the KM (BT1765) is reported as “BT1765 prefers sucrose over any of the other oligo- or polysaccharides tested”.
